This passage reports EC50 results from patent US8735398B2 (Bristol-Myers Squibb Company, priority 2009, dated 2014).

pEC50: −log10 of the molar value. A value given as a limit tells only on which side of the number the result lay.

As a reminder, the pEC50 is −log10 of the EC50, conventionally taken in molar units.

In one assay the test system is HCV 1b genotype. In words: HCV replicon assay (HCV-neo replicon cells, wild-type). It counts as cell-based, Hepatitis C virus. To be noted: HCV 1b genotype replicon; class symbol; read-out: EC50 Range against HCV 1b. The procedure, abridged:
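Inhibition was tested in replicon-bearing cells, both wild-type HCV-neo and lines with NS5A resistance substitutions, using the O'Boyle et al. 2005 replicon method or luciferase-reporter formats.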
With `CCCC[C@H](NC(=O)Cc1ccccc1)C(=O)Nc1ccc(-c2cnc(-c3ccc(NC(=O)[C@H](CCCC)NC(=O)Cc4ccccc4)cc3)o2)cc1` [JG-17, (2S,2′S)-N,N′-(4,4′-(oxazole-2,5-diyl)bis(4,1-phenylene))bis(2-(2-phenylacetamido)hexanamide)], the pEC50 was 6.00 to 7.00.

Staying with this assay, now noted: Hepatitis C virus, HCV 1b genotype replicon; class symbol; read-out: EC50 Range against HCV 1b.
On to `CC(=O)N1CCC[C@H]1C(=O)Nc1ccc(-c2cc(-c3ccc(NC(=O)[C@@H]4CCCN4C(C)=O)cc3)n(C)n2)cc1` [FY-2, (2S,2′S)-N,N′-((1-methyl-1H-pyrazole-3,5-diyl)di-4,1-phenylene)bis(1-acetyl-2-pyrrolidinecarboxamide)], for which the pEC50 is 5.00 to 6.00. On the same count and under the same terms, the same measure for `Cn1nc(-c2ccc(NC(=O)[C@@H]3CCCN3C(=O)OCc3ccccc3)cc2)cc1-c1ccc(NC(=O)[C@@H]2CCCN2C(=O)OCc2ccccc2)cc1` [FY-3, dibenzyl (2S,2′S)-2,2′-((1-methyl-1H-pyrazole-3,5-diyl)bis(4,1-phenylenecarbamoyl))di(1-pyrrolidinecarboxylate)]: 6.00 to 7.00; for `Cn1nc(-c2ccc(NC(=O)[C@@H]3CCCN3C(=O)C3CC3)cc2)cc1-c1ccc(NC(=O)[C@@H]2CCCN2C(=O)C2CC2)cc1` [FY-4, (2S,2′S)-N,N′-((1-methyl-1H-pyrazole-3,5-diyl)di-4,1-phenylene)bis(1-(cyclopropylcarbonyl)-2-pyrrolidinecarboxamide)]: 5.00 to 6.00.

In the case of `O=C(Nc1ccc(-c2cnc(-c3ccc(NC(=O)N[C@@H]4CCN(C(=O)[C@H](O)c5ccccc5)C4)cc3)o2)cc1)N[C@@H]1CCN(C(=O)[C@H](O)c2ccccc2)C1` [FY-5, N′,N′″-(1,3-oxazole-2,5-diyldi-4,1-phenylene)bis(1-((3R)-1-((2R)-2-hydroxy-2-phenylacetyl)-3-pyrrolidinyl)urea)], the pEC50 is 6.00 to 7.00.

For the compound `O=C(Nc1ccc(-c2cnc(-c3ccc(NC(=O)N[C@@H]4CCN(C(=O)[C@@H](O)c5ccccc5)C4)cc3)o2)cc1)N[C@@H]1CCN(C(=O)[C@@H](O)c2ccccc2)C1` [FY-6, N′,N′″-(1,3-oxazole-2,5-diyldi-4,1-phenylene)bis(1-((3R)-1-((2S)-2-hydroxy-2-phenylacetyl)-3-pyrrolidinyl)urea)], the pEC50 was 6.00 to 7.00. The same measure, in the same setting: the same measure for `C[C@@](O)(C(=O)N1CC[C@@H](NC(=O)Nc2ccc(-c3cnc(-c4ccc(NC(=O)N[C@@H]5CCN(C(=O)[C@@](C)(O)c6ccccc6)C5)cc4)o3)cc2)C1)c1ccccc1` [FY-7, N′,N′″-(1,3-oxazole-2,5-diyldi-4,1-phenylene)bis(1-((3R)-1-(2-hydroxy-2-phenylpropanoyl)-3-pyrrolidinyl)urea)]: 6.00 to 7.00; for `CN(C)[C@@H](C(=O)N1CC[C@@H](NC(=O)Nc2ccc(-c3cnc(-c4ccc(NC(=O)N[C@@H]5CCN(C(=O)[C@@H](c6ccccc6)N(C)C)C5)cc4)o3)cc2)C1)c1ccccc1` [FY-8, N′,N′″-(1,3-oxazole-2,5-diyldi-4,1-phenylene)bis(1-((3R)-1-((2R)-2-(dimethylamino)-2-phenylacetyl)-3-pyrrolidinyl)urea)]: 6.00 to 7.00; for `CN(C)[C@@H](C(=O)N1CCCN1C(=O)Nc1ccc(-c2cnc(-c3ccc(NC(=O)N4CCCN4C(=O)[C@@H](c4ccccc4)N(C)C)cc3)o2)cc1)c1ccccc1` [FY-9, N,N′-(1,3-oxazole-2,5-diyldi-4,1-phenylene)bis(2-((2R)-2-(dimethylamino)-2-phenylacetyl)-1-pyrazolidinecarboxamide)]: 7.00 to 8.34.

As for `O=C(Nc1ccc(-c2cnc(-c3ccc(NC(=O)[C@@H]4CCCN4C(=O)OCc4ccccc4)cc3)o2)cc1)[C@@H]1CCCN1C(=O)OCc1ccccc1` [JG-1, dibenzyl (2S,2′S)-2,2′-(1,3-oxazole-2,5-diylbis(4,1-phenylenecarbamoyl))di(1-pyrrolidinecarboxylate)], the negative-log EC50 (pEC50) was greater than 8.34.

With `O=C(Nc1ccc(-c2cnc(-c3ccc(NC(=O)[C@@H]4C[C@@H](O)CN4C(=O)Cc4ccccc4)cc3)o2)cc1)[C@@H]1C[C@@H](O)CN1C(=O)Cc1ccccc1` [JG-2, (2S,4R,2′S,4′R)-N,N′-(1,3-oxazole-2,5-diyldi-4,1-phenylene)bis(4-hydroxy-1-(phenylacetyl)-2-pyrrolidinecarboxamide)], the pEC50 is greater than 8.34. The same measure, in the same setting: the same measure for `O=C(Nc1ccc(-c2cnc(-c3ccc(NC(=O)[C@@H]4CCCN4C(=O)Cc4ccccc4)cc3)o2)cc1)[C@@H]1CCCN1C(=O)Cc1ccccc1` [JG-3, (2S,2′S)-N,N′-(1,3-oxazole-2,5-diyldi-4,1-phenylene)bis(1-(phenylacetyl)-2-pyrrolidinecarboxamide)]: greater than 8.34; for `CC(C)[C@H](NC(=O)OCc1ccccc1)C(=O)Nc1ccc(-c2cnc(-c3ccc(NC(=O)[C@@H](NC(=O)OCc4ccccc4)C(C)C)cc3)o2)cc1` [JG-4, dibenzyl (1,3-oxazole-2,5-diylbis(4,1-phenyleneimino((2S)-3-methyl-1-oxo-1,2-butanediyl)))biscarbamate]: 6.00 to 7.00. Still for that read-out and setting: the same measure for `CC(C)[C@@H](NC(=O)OCc1ccccc1)C(=O)Nc1ccc(-c2cnc(-c3ccc(NC(=O)[C@H](NC(=O)OCc4ccccc4)C(C)C)cc3)o2)cc1` [JG-5, dibenzyl (1,3-oxazole-2,5-diylbis(4,1-phenyleneimino((2R)-3-methyl-1-oxo-1,2-butanediyl)))biscarbamate]: 5.00 to 6.00; for `O=C(Nc1ccc(-c2cnc(-c3ccc(NC(=O)[C@@H]4CCCCN4C(=O)Cc4ccccc4)cc3)o2)cc1)[C@@H]1CCCCN1C(=O)Cc1ccccc1` [JG-6, (2S,2′S)-N,N′-(1,3-oxazole-2,5-diyldi-4,1-phenylene)bis(1-(phenylacetyl)-2-piperidinecarboxamide)]: 6.00 to 7.00. Same read-out and setting: the same measure for `CCC(=O)N1CCC[C@H]1C(=O)Nc1ccc(-c2cnc(-c3ccc(NC(=O)[C@@H]4CCCN4C(=O)CC)cc3)o2)cc1` [JG-8, (2S,2′S)-N,N′-(1,3-oxazole-2,5-diyldi-4,1-phenylene)bis(1-propionyl-2-pyrrolidinecarboxamide)]: 6.00 to 7.00; for `O=C(Nc1ccc(-c2cnc(-c3ccc(NC(=O)[C@@H]4CCCN4C(=O)C4CCC4)cc3)o2)cc1)[C@@H]1CCCN1C(=O)C1CCC1` [JG-9, (2S,2′S)-N,N′-(1,3-oxazole-2,5-diyldi-4,1-phenylene)bis(1-(cyclobutylcarbonyl)-2-pyrrolidinecarboxamide)]: 6.00 to 7.00. For the compound `O=C(Nc1ccc(-c2cnc(-c3ccc(NC(=O)[C@@H]4CCCN4C(=O)c4ccncc4)cc3)o2)cc1)[C@@H]1CCCN1C(=O)c1ccncc1` [JG-10, (2S,2′S)-N,N′-(1,3-oxazole-2,5-diyldi-4,1-phenylene)bis(1-isonicotinoyl-2-pyrrolidinecarboxamide)], the pEC50 is 6.00 to 7.00.

As for `CC(=O)N1CCC[C@H]1C(=O)Nc1ccc(-c2cnc(-c3ccc(NC(=O)[C@@H]4CCCN4C(C)=O)cc3)o2)cc1` [JG-11, (2S,2′S)-N,N′-(1,3-oxazole-2,5-diyldi-4,1-phenylene)bis(1-acetyl-2-pyrrolidinecarboxamide)], the pEC50 was 5.00 to 6.00. The same measure, in the same setting: as for `CC(C)[C@H](NC(=O)Cc1ccccc1)C(=O)Nc1ccc(-c2cnc(-c3ccc(NC(=O)[C@@H](NC(=O)Cc4ccccc4)C(C)C)cc3)o2)cc1` [JG-12, (2S,2′S)-N,N′-(1,3-oxazole-2,5-diyldi-4,1-phenylene)bis(3-methyl-2-((phenylacetyl)amino)butanamide)], the figure is 7.00 to 8.34; as for `CSCC[C@H](NC(=O)Cc1ccccc1)C(=O)Nc1ccc(-c2cnc(-c3ccc(NC(=O)[C@H](CCSC)NC(=O)Cc4ccccc4)cc3)o2)cc1` [JG-13, (2S,2′S)-N,N′-(1,3-oxazole-2,5-diyldi-4,1-phenylene)bis(4-(methylsulfanyl)-2-((phenylacetyl)amino)butanamide)], 6.00 to 7.00. The same measure, in the same setting: as for `CSC[C@H](NC(=O)Cc1ccccc1)C(=O)Nc1ccc(-c2cnc(-c3ccc(NC(=O)[C@H](CSC)NC(=O)Cc4ccccc4)cc3)o2)cc1` [JG-14, (2R,2′R)-N,N′-(1,3-oxazole-2,5-diyldi-4,1-phenylene)bis(3-(methylsulfanyl)-2-((phenylacetyl)amino)propanamide)], the figure is 6.00 to 7.00; as for `COCC[C@H](NC(=O)Cc1ccccc1)C(=O)Nc1ccc(-c2cnc(-c3ccc(NC(=O)[C@H](CCOC)NC(=O)Cc4ccccc4)cc3)o2)cc1` [JG-15, (2S,2′S)-N,N′-(1,3-oxazole-2,5-diyldi-4,1-phenylene)bis(4-methoxy-2-((phenylacetyl)amino)butanamide)], 6.00 to 7.00; as for `CC(C)(C)OC[C@H](NC(=O)Cc1ccccc1)C(=O)Nc1ccc(-c2cnc(-c3ccc(NC(=O)[C@H](COC(C)(C)C)NC(=O)Cc4ccccc4)cc3)o2)cc1` [JG-16, (2S,2′S)-N,N′-(1,3-oxazole-2,5-diyldi-4,1-phenylene)bis(3-tert-butoxy-2-((phenylacetyl)amino)propanamide)], 6.00 to 7.00. Consider `O=C(Cc1ccccc1)NC1(C(=O)Nc2ccc(-c3cnc(-c4ccc(NC(=O)C5(NC(=O)Cc6ccccc6)CC5)cc4)o3)cc2)CC1` [JG-18, N,N′-(1,3-oxazole-2,5-diyldi-4,1-phenylene)bis(1-((phenylacetyl)amino)cyclopropanecarboxamide)], for which the pEC50 is 5.00 to 6.00.

With `CO[C@H](C(=O)N1CCC[C@H]1C(=O)Nc1ccc(-c2cnc(-c3ccc(NC(=O)[C@@H]4CCCN4C(=O)[C@@H](OC)c4ccccc4)cc3)o2)cc1)c1ccccc1` [JG-19, (2S,2′S)-N,N′-(1,3-oxazole-2,5-diyldi-4,1-phenylene)bis(1-((2S)-2-methoxy-2-phenylacetyl)-2-pyrrolidinecarboxamide)], the pEC50 was 7.00 to 8.34. `O=C(Nc1ccc(-c2cnc(-c3ccc(NC(=O)[C@@H]4CCCN4C(=O)[C@@H](O)c4ccccc4)cc3)o2)cc1)[C@@H]1CCCN1C(=O)[C@@H](O)c1ccccc1` [JG-20, (2S,2′S)-N,N′-(1,3-oxazole-2,5-diyldi-4,1-phenylene)bis(1-((2S)-2-hydroxy-2-phenylacetyl)-2-pyrrolidinecarboxamide)]: the pEC50 is 7.00 to 8.34.

The assay is the same for the next values; noted with them: Hepatitis C virus, HCV 1b genotype replicon; read-out: EC50 1b.
Take `O=C(Nc1ccc(-c2cnc(-c3ccc(NC(=O)[C@@H]4C[C@@H](O)CN4C(=O)Cc4ccccc4)cc3)o2)cc1)[C@@H]1C[C@@H](O)CN1C(=O)Cc1ccccc1` [JG-2, (2S,4R,2′S,4′R)-N,N′-(1,3-oxazole-2,5-diyldi-4,1-phenylene)bis(4-hydroxy-1-(phenylacetyl)-2-pyrrolidinecarboxamide)]: the pEC50 was 8.70.

In the case of `CC(C)[C@@H](NC(=O)OCc1ccccc1)C(=O)Nc1ccc(-c2cnc(-c3ccc(NC(=O)[C@H](NC(=O)OCc4ccccc4)C(C)C)cc3)o2)cc1` [JG-5, dibenzyl (1,3-oxazole-2,5-diylbis(4,1-phenyleneimino((2R)-3-methyl-1-oxo-1,2-butanediyl)))biscarbamate], the pEC50 is 5.00. On the same count and under the same terms, as for `CO[C@H](C(=O)N1CCC[C@H]1C(=O)Nc1ccc(-c2cnc(-c3ccc(NC(=O)[C@@H]4CCCN4C(=O)[C@@H](OC)c4ccccc4)cc3)o2)cc1)c1ccccc1` [JG-19, (2S,2′S)-N,N′-(1,3-oxazole-2,5-diyldi-4,1-phenylene)bis(1-((2S)-2-methoxy-2-phenylacetyl)-2-pyrrolidinecarboxamide)], the figure is 8.05.
